The record followed here is patent US20250320203A1, “4-(3H-PYRAZOLO[4,3-F]QUINOLIN-7-YL)-N-(2-(DIMETHYLAMINO)ETHYL)BENZAMIDE- OR HYDROXAMIC ACID COMPOUNDS, COMPOSITIONS, AND METHODS OF USE” (Purdue Research Foundation, priority 2022, published 2025).

Usually inhibition stands for the share of the control response that was lost under treatment. As a reminder, the IC50 is the concentration needed to halve the response being measured. A lower IC50 goes with inhibition by little substance.

Test [1] relates to Molm-14 cells (FLT3-ITD). The test is described as follows: AML cell line growth inhibition (CellTiter-Blue), 50 nM. The conditions noted are these: Homo sapiens, 50 nM inhibitor conc., means of triplicates, read-out: Percent Inhibition (%) Molm-14 growth. It counts as cell-based. The procedure: (§1) With the amide kinase inhibitor library established, kinase inhibition and AML cell line (Molm-14, which harbors FLT3-ITD) growth inhibition were analyzed (Table 1). More specifically, Haspin and FLT3 inhibition were evaluated in-house via ADP Glo Kinase Assay (Promega, Madison, WI). […] Values reported are means of triplicates.
More specifically, cells were cultured to confluence in RPMI medium supplemented with 10% fetal bovine serum and 1× Penicillin-Streptomycin (Gibco™). Cells were plated at 5,000 cells/well in 96 well plates. After 24-hour incubation at 37° C. in a 5% CO2 incubator, compounds diluted in the same media were added to the indicated final concentration and allowed to incubate at 37° C. in a 5% CO2 incubator for 72 hours. Viability was determined using CellTiter-Blue® Cell Viability Assay (Promega, Madison, WI) with absorbance readings at 570 nm performed on a Cytation™ 5 Cell Imaging Multi-Mode Reader (BioTek) 3 hours after addition. Appropriate vehicle and cell-free controls were included. GI50 readings were confirmed by two scientists on two separate days.

The target of test [2] is T1, haspin (Homo sapiens, UniProt Q8TF76).
T1 sequence (Q8TF76 1-798): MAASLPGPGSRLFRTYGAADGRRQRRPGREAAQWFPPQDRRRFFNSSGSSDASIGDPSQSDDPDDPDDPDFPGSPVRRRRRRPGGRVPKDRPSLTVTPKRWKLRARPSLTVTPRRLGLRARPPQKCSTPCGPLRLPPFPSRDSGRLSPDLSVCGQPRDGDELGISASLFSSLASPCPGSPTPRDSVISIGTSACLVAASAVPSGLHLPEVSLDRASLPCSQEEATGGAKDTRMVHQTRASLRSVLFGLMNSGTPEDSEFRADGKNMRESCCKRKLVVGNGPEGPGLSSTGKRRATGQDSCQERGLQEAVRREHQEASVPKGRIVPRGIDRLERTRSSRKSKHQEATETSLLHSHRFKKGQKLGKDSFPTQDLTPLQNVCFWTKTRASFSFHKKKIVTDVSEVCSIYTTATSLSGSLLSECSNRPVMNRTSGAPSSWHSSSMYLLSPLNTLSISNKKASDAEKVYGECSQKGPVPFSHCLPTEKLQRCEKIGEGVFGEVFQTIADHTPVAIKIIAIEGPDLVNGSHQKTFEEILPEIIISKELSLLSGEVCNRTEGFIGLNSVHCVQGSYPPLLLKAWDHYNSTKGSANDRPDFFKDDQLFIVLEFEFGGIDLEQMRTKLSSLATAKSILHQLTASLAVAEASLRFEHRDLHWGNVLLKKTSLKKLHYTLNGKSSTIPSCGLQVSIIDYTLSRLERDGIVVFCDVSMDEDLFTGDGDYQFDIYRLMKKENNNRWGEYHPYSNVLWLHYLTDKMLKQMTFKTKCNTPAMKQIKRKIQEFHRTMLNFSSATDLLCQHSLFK
The experiment in a line: ADP Glo Kinase Assay, haspin, 50 nM inhibitor. It counts as biochemical. The conditions noted are these: 50 nM inhibitor conc.; means of triplicates; read-out: Percent Inhibition (%) Haspin. The procedure:
as §1
(§2) Briefly, the ADP-Glo Kinase Assay Kit was used to determine inhibition of haspin. Kinase Buffer (SignalChem Cat #K01-09; 25 mM MOPS, pH 7.2, 12.5 mM β-glycerol-phosphate, 25 mM MgCl2, 2 mM EDTA) was supplemented with dithiothreitol (DTT) (0.2 mM) and bovine serum albumin (BSA) (40 μg/mL) immediately prior to use. Reaction volumes of 5 μL containing 9 ng/μL kinase, 10 μM ATP, 50 nM inhibitor, and the appropriate peptide substrate (20 μM) were incubated for 3 hours, and then quenched with an equal volume (5 μL) of GLO reagent. After 40 minutes, 10 μL DET reagent was added and incubated for 1 hour before visualization on a Cytation™ 5 Cell Imaging Multi-Mode Reader (BioTek).
In general terms: ADP-Glo first removes unused ATP, then detects ADP through luciferase.

Test [3] has as its target T2, FLT3 (Homo sapiens, UniProt P36888).
T2 sequence (P36888 27-993): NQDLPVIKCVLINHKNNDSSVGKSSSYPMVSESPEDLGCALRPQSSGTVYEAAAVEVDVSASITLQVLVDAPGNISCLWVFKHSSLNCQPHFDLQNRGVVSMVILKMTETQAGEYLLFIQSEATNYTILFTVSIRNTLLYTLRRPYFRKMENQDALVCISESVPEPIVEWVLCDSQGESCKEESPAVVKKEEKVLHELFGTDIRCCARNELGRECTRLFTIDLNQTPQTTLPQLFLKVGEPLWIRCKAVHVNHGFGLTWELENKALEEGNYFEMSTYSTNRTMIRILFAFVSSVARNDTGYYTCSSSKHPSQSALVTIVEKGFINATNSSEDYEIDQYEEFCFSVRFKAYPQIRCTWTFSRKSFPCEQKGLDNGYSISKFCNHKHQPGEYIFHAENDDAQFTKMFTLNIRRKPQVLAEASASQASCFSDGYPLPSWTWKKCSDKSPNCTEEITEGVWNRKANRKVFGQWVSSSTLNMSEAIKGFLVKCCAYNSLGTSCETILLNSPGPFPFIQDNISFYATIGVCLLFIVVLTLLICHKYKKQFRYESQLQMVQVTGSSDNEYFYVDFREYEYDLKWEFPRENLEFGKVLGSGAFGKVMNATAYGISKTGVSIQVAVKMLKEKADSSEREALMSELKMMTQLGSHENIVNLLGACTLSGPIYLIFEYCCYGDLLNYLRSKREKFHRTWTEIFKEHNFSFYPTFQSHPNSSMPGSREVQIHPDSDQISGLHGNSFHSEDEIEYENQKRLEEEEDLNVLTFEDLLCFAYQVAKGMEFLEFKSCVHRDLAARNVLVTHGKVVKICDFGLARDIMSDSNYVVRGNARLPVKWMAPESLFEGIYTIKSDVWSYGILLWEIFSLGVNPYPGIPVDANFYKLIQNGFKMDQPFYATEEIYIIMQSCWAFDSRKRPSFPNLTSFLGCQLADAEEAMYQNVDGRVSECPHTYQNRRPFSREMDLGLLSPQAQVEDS
The experiment in a line: ADP Glo Kinase Assay, FLT3, 50 nM inhibitor. It counts as biochemical. The following applies: 50 nM inhibitor conc.; means of triplicates; read-out: Percent Inhibition (%) FLT3. The procedure: as §1, §2

For test [4], the system named is histone H3 (Thr3) phosphorylation by haspin. The experiment in a line: Western blot, histone H3 (Thr3) phosphorylation by haspin in Molm-14 cells. It counts as cell-based, human. The conditions noted are these: 24 hours, HSK205 5, 20 or 100 nM, gilteritinib 100 nM. The procedure: Whether Compound HSK205 does indeed inhibit haspin in AML cells was then evaluated, and immunoblotting was performed to confirm inhibition of histone H3 (Thr3)phosphorylation by haspin (FIG. 13A). […] The samples were subsequently analyzed for the phosphorylation of histone H3 (Thr3).
Acute myeloid leukemia cells (Molm-14) were incubated with various concentrations of compound as specified. Cells were collected and lysed, and protein concentrations were quantified relative to BSA standards. After protein denaturation, proteins were separated via SDS-PAGE electrophoresis and transferred to NC membranes. After blocking, overnight incubation with specific primary antibodies, and room temperature incubation for 2 hours with peroxidase-conjugated secondary antibodies, peroxidase activity was detected with SuperSignal West Pico reagents (Thermo Scientific) using a CCD camera LAS-4000 (Fujifilm). Bands were normalized using housekeeping gene, Actin. Values reported represent the means of triplicates and error bars represent SD. All specific antibodies were purchased from Cell Signaling.
A general note: In western blotting, separated proteins are transferred to a membrane and probed.

Test [5] addresses CDK12/CyclinK (Homo sapiens, UniProt Q9NYV4). The test is described as follows: CDK12/CyclinK inhibition (IC50). It counts as biochemical.
The target of test [6] is CDK2 (Homo sapiens, UniProt P24941). The test is described as follows: CDK2 inhibition (IC50). It counts as biochemical.

Sequence of CDK12/CyclinK (Q9NYV4 whole entry): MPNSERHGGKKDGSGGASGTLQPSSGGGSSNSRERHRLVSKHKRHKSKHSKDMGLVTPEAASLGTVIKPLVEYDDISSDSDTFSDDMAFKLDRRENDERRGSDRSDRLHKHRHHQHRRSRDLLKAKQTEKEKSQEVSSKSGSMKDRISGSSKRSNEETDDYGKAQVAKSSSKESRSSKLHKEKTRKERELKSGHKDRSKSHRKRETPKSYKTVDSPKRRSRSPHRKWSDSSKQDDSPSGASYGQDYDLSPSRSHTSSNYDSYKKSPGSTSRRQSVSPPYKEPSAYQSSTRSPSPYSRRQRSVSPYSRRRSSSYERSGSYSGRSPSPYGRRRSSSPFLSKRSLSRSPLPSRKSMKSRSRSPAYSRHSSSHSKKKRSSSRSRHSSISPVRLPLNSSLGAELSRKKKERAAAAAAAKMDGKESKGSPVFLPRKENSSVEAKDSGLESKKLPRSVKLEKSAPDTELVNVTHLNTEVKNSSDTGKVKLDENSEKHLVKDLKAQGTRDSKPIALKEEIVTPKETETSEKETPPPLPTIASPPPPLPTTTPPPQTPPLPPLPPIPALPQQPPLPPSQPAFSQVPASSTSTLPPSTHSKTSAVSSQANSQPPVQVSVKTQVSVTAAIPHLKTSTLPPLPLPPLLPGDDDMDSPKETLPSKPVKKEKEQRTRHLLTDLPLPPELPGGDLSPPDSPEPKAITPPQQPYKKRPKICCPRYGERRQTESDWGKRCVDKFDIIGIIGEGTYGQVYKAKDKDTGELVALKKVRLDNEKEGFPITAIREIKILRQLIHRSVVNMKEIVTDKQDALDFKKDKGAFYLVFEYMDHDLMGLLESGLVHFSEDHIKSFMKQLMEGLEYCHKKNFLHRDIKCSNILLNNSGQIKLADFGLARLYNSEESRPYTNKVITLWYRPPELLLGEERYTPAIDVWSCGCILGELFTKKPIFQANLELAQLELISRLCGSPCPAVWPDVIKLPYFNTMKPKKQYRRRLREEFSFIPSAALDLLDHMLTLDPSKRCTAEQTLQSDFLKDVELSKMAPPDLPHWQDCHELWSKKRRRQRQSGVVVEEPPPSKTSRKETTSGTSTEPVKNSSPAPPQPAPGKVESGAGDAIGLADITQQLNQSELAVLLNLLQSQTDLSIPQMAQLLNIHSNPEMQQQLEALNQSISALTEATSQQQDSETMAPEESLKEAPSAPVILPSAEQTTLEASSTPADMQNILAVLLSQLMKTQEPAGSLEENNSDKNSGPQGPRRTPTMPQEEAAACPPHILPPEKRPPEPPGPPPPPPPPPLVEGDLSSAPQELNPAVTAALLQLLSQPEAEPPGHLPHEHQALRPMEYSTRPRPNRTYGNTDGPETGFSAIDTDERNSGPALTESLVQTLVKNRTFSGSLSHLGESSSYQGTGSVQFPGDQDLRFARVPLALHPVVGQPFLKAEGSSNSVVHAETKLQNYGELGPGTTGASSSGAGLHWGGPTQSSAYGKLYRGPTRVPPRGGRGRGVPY
Sequence of CDK12/CyclinK (O75909 whole entry partner): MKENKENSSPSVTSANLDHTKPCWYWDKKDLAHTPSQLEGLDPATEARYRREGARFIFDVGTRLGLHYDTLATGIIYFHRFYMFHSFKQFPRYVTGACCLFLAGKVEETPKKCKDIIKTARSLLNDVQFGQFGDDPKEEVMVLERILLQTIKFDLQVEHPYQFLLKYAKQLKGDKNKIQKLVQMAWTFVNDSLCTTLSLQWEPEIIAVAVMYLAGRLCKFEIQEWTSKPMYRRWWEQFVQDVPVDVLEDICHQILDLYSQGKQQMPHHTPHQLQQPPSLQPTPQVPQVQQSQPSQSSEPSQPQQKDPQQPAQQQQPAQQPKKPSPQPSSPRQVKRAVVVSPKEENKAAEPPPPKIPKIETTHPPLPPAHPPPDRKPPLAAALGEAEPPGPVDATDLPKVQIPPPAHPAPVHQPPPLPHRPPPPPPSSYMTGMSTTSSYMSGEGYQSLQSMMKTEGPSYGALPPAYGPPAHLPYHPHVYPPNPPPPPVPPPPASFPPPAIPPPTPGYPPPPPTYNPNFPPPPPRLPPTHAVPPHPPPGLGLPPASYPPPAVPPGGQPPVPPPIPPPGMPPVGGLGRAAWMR

In the case of `CCc1nc(C(N)=O)c(Nc2ccc(N3CCC(N4CCN(C)CC4)CC3)c(OC)c2)nc1NC1CCOCC1` [gilteritinib, reference compound], the inhibition at 0.05 µM in test [1] was 87%; in test [2], 11%; in test [3], 93%. For the same compound, in test [4], the “phosphorylation of histone H3 (Thr3)” value is reported as “did not display haspin inhibition”.

Turning to `CN(C)CCNC(=O)c1ccc(-c2nc3ccc4[nH]ncc4c3c3c2CCCC3)cc1` [Compound HSH2177, N-(2-(dimethylamino)ethyl)-4-(8,9,10,11-tetrahydro-3H-pyrazolo[4,3-a]phenanthridin-7-yl)benzamide], the results for the IC50 in test [5] and in test [6] were 27 nM and 7 nM, respectively.
